According to paper doi:10.1101/2020.04.05.026310v1 (biorxiv, 2020):

T1: mPDXK (mouse pyridoxal kinase) (Mus musculus, UniProt Q8K183)
T1 sequence (Q8K183 1-312): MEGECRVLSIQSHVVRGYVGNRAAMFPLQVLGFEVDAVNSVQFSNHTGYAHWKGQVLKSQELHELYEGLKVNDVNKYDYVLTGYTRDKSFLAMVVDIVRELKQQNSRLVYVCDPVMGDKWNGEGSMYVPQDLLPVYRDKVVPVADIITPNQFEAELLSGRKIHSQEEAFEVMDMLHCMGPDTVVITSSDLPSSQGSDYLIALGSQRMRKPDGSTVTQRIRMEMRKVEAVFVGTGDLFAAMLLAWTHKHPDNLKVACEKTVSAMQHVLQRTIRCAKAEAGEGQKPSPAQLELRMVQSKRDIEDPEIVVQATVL


Assays:
[1] = target: T1, mPDXK (mouse pyridoxal kinase); assay: photometric PLP formation at […] nm, nonlinear variable-slope fit; format: biochemical
[2] = target: T1, mPDXK (mouse pyridoxal kinase); assay: photometric PLP formation at […] nm, Dixon plot; format: biochemical
[3] = substrate: Cc1ncc(CO)c(C=O)c1O; assay: purified protein; format: biochemical, Mus musculus; settings: 1 mM ATP, 1 mM MgCl2, 100 mM KCl, 10 mM Hepes pH 7.3, 37 °C

| Molecule | IC50 [1] | Ki [2] | Km [3] | kcat [3] |
| --- | --- | --- | --- | --- |
| C[C@H]1[C@H](OC(=O)CCC(=O)O)O[C@@H]2O[C@@]3(C)CC[C@H]4[C@H](C)CC[C@@H]1[C@@]24OO3 [artesunate] | 1445 ± 1.4 µM | 1250 ± 4.7 µM | – | – |
| C[C@@H]1CC[C@H]2[C@@H](C)C(=O)O[C@@H]3O[C@@]4(C)CC[C@@H]1[C@]32OO4 [artemisinin] | 229 ± 1.3 µM | 120 ± 2.4 µM | – | – |
| mPDXK (mouse pyridoxal kinase) (Mus musculus) (protein) MEGECRVLSIQSHVVRGYVGNRAAMFPLQVLGFEVDAVNSVQFSNHTGYAHWKGQVLKSQELHELYEGLKVNDVNKYDYVLTGYTRDKSFLAMVVDIVRELKQQNSRLVYVCDPVMGDKWNGEGSMYVPQDLLPVYRDKVVPVADIITPNQFEAELLSGRKIHSQEEAFEVMDMLHCMGPDTVVITSSDLPSSQGSDYLIALGSQRMRKPDGSTVTQRIRMEMRKVEAVFVGTGDLFAAMLLAWTHKHPDNLKVACEKTVSAMQHVLQRTIRCAKAEAGEGQKPSPAQLELRMVQSKRDIEDPEIVVQATVL | – | – | 26.0 ± 5.4 µM | 0.1436 ± 0.003 s⁻¹ |
